In US7425640B2, “Substituted 5-carboxyamide pyrazoles and [1,2,4]triazoles as antiviral agents” (priority 2004, dated 2008) one finds IC50 data, which are given here for 48 molecules.

One experiment deals with HCV RNA-dependent RNA polymerase NS5B (Δ21) (Hepatitis C virus genotype 1b, UniProt P26663). Nature of the experiment: Assay for HCV RNA-dependent RNA polymerase activity (SPA, [3H]-GTP incorporation). The conditions noted are these: read-out: Δ21 Activity (IC50 μM); 50 nM NS5B (Δ21), class symbols. It counts as biochemical. Here is the method: Inhibitory activity of the present compounds against HCV RNA-dependent RNA polymerase was assayed according to the methods disclosed in United States Patent Application US2004/038993, content of which is incorporated herein by reference; and those described in Ferrari, E.; Wright-Minogue, J.; Fang, J. W. S.; Baroudy, B. M.; Lau, J. Y. N.; Hong, Z. J. Virol. 1999, 73, 1649.
HCV RNA-dependent RNA polymerase NS5B (Δ21), sequence (P26663 2420-2989, stated change not applied): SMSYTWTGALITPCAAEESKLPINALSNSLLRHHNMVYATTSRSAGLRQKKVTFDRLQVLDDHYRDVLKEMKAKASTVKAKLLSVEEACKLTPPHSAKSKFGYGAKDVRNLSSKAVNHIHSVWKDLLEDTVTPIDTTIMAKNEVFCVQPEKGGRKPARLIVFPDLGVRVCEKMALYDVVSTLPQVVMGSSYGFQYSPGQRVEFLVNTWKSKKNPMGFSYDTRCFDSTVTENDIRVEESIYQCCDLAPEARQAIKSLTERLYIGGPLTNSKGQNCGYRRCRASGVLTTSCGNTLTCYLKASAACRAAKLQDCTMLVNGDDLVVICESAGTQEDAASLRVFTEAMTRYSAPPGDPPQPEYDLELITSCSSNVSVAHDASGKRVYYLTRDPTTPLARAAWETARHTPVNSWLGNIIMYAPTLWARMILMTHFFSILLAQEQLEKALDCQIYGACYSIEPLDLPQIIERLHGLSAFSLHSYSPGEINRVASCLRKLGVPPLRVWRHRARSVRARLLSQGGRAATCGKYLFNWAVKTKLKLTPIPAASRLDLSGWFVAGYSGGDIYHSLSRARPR
Briefly, 50 μl reactions containing 20 mM HEPES (pH 7.3), 7.5 mM DTT, 20 units/ml RNasIN, 0.5 μg/ml biotinylated oligoG12, 5 μg/ml polyC, 5 μM GTP, 20 μCi/ml [^3H]-GTP, 10 mM MgCl2, 60 mM NaCl, 100 μg/ml BSA, and 50 nM NS5B (Δ21) were incubated at room temperature for three hours in 96-well plates with or without test compounds. Assay was terminated by the addition of 50 μl 10 mg/ml streptavidin-coated SPA beads supplemented with 100 mM EDTA, and the incorporation of labeled GTP determined by a TopCount Scintillation Counter. IC50 values were calculated from single experiments using 11 serial 2-fold dilutions (0.05-50 μM), and data were considered reliable only when the IC50 value of a positive internal control was within standard deviation range.
With `O=C(Cn1nc(C(=O)NOCC2CC2)cc1C(=O)N[C@H]1CCCC[C@@H]1OCc1ccccc1)N[C@H]1CCCC[C@@H]1OCc1ccccc1` [Compound 72], the IC50 lay in the range of 0.1 to 1 µM.

For the molecule `C[C@@H](NC(=O)c1cc(C(=O)NC2CCCCC2OCc2ccccc2)n(CC(=O)N[C@H]2CCCC[C@@H]2OCc2ccccc2)n1)c1cccc2ccccc12` (stereo partly drawn) [Compound 74], the IC50 was 0.1 to 1 µM. On to `CNC(=O)Nc1cc(C(=O)N[C@H]2CCCC[C@@H]2OCc2ccccc2)n(CC(=O)N[C@H]2CCCC[C@@H]2OCc2ccccc2)n1` [Compound 135], for which the IC50 lay within 0.1 to 1 µM.

For the molecule `Cc1ccc(OCc2ccccc2)c(NC(=O)c2cc(C(N)=O)nn2CC(=O)N[C@H]2CCCC[C@@H]2OCc2ccccc2)c1` [Compound 98], the IC50 was 0.1 to 1 µM.

`O=C(Cn1nc(C(=O)NCCc2ccccc2Cl)cc1C(=O)N[C@H]1CCCC[C@@H]1OCc1ccccc1)N[C@H]1CCCC[C@@H]1OCc1ccccc1` [Compound 103]: the concentration for half-maximal inhibition (IC50) fell in the range of 0.1 to 1 µM. For the molecule `O=C(Cn1nc(C(=O)N2CCN(c3ccccc3)CC2)cc1C(=O)N[C@H]1CCCC[C@@H]1OCc1ccccc1)N[C@H]1CCCC[C@@H]1OCc1ccccc1` [Compound 140], the IC50 is 0.1 to 1 µM. Same read-out and setting: then `O=C(Cn1nc(C(=O)c2ccccc2)cc1C(=O)N[C@H]1CCCC[C@@H]1OCc1ccccc1)N[C@H]1CCCC[C@@H]1OCc1ccccc1` [Compound 88], with 0.1 to 1 µM. As to `CCCCNC(=O)c1cc(C(=O)N[C@H]2CCCC[C@@H]2OCc2ccccc2)n(CC(=O)N[C@H]2CCCC[C@@H]2OCc2ccccc2)n1` [Compound 110], the IC50 lay within 0.1 to 1 µM. Consider `O=C(Cn1nc(C(=O)Nc2ccccc2)cc1C(=O)N[C@H]1CCCC[C@@H]1OCc1ccccc1)N[C@H]1CCCC[C@@H]1OCc1ccccc1` [Compound 54], for which the IC50 was in the range of 0.1 to 1 µM. On to `C=CCNC(=O)c1cc(C(=O)N[C@H]2CCCC[C@@H]2OCc2ccccc2)n(CC(=O)N[C@H]2CCCC[C@@H]2OCc2ccccc2)n1` [Compound 111], for which the IC50 fell in the range of 0.1 to 1 µM. On to `CC(C)NC(=O)Nc1cc(C(=O)N[C@H]2CCCC[C@@H]2OCc2ccccc2)n(CC(=O)N[C@H]2CCCC[C@@H]2OCc2ccccc2)n1` [Compound 167], for which the IC50 was in the range of 0.1 to 1 µM. Same read-out and setting: for `Cc1ccc(OCC2CC2)c(NC(=O)Cn2nc(C(=O)O)cc2C(=O)N[C@H]2CCCC[C@@H]2OCc2ccccc2)c1` [Compound 56] the value was 0.1 to 1 µM; for `CN(C(=O)Cn1nc(C(=O)O)cc1C(=O)N[C@H]1CCCC[C@@H]1OCc1ccccc1)[C@H]1CCCC[C@@H]1OCc1ccccc1` [Compound 123], 0.1 to 1 µM.

For `Cc1ccc(OCC(C)(C)C)c(NC(=O)c2cc(C(=O)O)nn2CC(=O)N[C@H]2CCCC[C@@H]2OCc2ccccc2)c1` [Compound 114], the IC50 lay in the range of 0.1 to 1 µM. Take `CCOC(=O)c1cc(C(=O)N[C@H]2CCCC[C@@H]2OCc2ccccc2)n(CC(=O)Nc2cc(C)ccc2OCC2CCCC2)n1` [Compound 99]: the IC50 lay within 0.1 to 1 µM. Still for that read-out and setting: then `COc1ccc(OC)c(S(=O)(=O)Nc2cc(C(=O)N[C@H]3CCCC[C@@H]3OCc3ccccc3)n(CC(=O)N[C@H]3CCCC[C@@H]3OCc3ccccc3)n2)c1` [Compound 97], with 0.1 to 1 µM; and `O=C(Cn1nc(C=NO)cc1C(=O)N[C@H]1CCCC[C@@H]1OCc1ccccc1)N[C@H]1CCCC[C@@H]1OCc1ccccc1` [Compound 143], with 0.1 to 1 µM. Still for that read-out and setting: then `O=C(Cn1nc(C(=O)NOCc2ccccc2)cc1C(=O)N[C@H]1CCCC[C@@H]1OCc1ccccc1)N[C@H]1CCCC[C@@H]1OCc1ccccc1` [Compound 53], with 0.1 to 1 µM; and `CS(=O)(=O)Nc1cc(C(=O)N[C@H]2CCCC[C@@H]2OCc2ccccc2)n(CC(=O)N[C@H]2CCCC[C@@H]2OCc2ccccc2)n1` [Compound 60], with 0.1 to 1 µM; and `O=C(Cn1nc(C(=O)N(c2ccccc2)c2ccccc2)cc1C(=O)N[C@H]1CCCC[C@@H]1OCc1ccccc1)N[C@H]1CCCC[C@@H]1OCc1ccccc1` [Compound 159], with 0.1 to 1 µM. Take `CC(C)(C)OC(=O)c1cc(C(=O)N[C@H]2CCCC[C@@H]2OCc2ccccc2)n(CC(=O)N[C@H]2CCCC[C@@H]2OCc2ccccc2)n1` [Compound 65]: the IC50 is 0.1 to 1 µM. On to `CCOC(=O)c1cc(C(=O)N[C@H]2CCCC[C@@H]2OCc2ccccc2)n(CC(=O)Nc2ccccc2Oc2ccc(Cl)c(C)c2)n1` [Compound 136], for which the IC50 fell in the range of 0.1 to 1 µM. Consider `COC(=O)CCCCCNC(=O)c1cc(C(=O)N[C@H]2CCCC[C@@H]2OCc2ccccc2)n(CC(=O)N[C@H]2CCCC[C@@H]2OCc2ccccc2)n1` [Compound 149], for which the IC50 fell in the range of 0.1 to 1 µM.

Regarding `O=C(Cn1nc(C(=O)NOCc2cccc3ccccc23)cc1C(=O)N[C@H]1CCCC[C@@H]1OCc1ccccc1)N[C@H]1CCCC[C@@H]1OCc1ccccc1` [Compound 68], the IC50 lay in the range of 0.1 to 1 µM. Consider `CC(C)C(=O)c1cc(C(=O)N[C@H]2CCCC[C@@H]2OCc2ccccc2)n(CC(=O)N[C@H]2CCCC[C@@H]2OCc2ccccc2)n1` [Compound 63], for which the IC50 was 0.1 to 1 µM. Turning to `O=C(Cn1nc(NC(=O)NCc2ccccc2)cc1C(=O)N[C@H]1CCCC[C@@H]1OCc1ccccc1)N[C@H]1CCCC[C@@H]1OCc1ccccc1` [Compound 121], the IC50 fell in the range of 0.1 to 1 µM.

Still in this experiment, the particulars now being: Δ21 Activity (IC50 μM), 50 nM NS5B (Δ21), class symbols.
As for `COc1ccc(CNC(=O)c2cc(C(=O)N[C@H]3CCCC[C@@H]3OCc3ccccc3)n(CC(=O)N[C@H]3CCCC[C@@H]3OCc3ccccc3)n2)cc1` [Compound 40], the IC50 lay in the range of 0.05 to 0.1 µM. The same measure, in the same setting: for `O=C(Cn1nc(-c2nnn[nH]2)cc1C(=O)Nc1ccccc1OCc1ccccc1)N[C@H]1CCCC[C@@H]1OCc1ccccc1` [Compound 25] the value was 0.05 to 0.1 µM; for `CCOC(=O)c1cc(C(=O)N(C)[C@H]2CCCC[C@@H]2OCc2ccccc2)n(CC(=O)N(C)C2CCCC[C@@H]2OCc2ccccc2)n1` (stereo partly drawn) [Compound 210], > 1 µM; for `O=C(Cn1nc(NS(=O)(=O)C(F)(F)F)cc1C(=O)N[C@H]1CCCC[C@@H]1OCc1ccccc1)N[C@H]1CCCC[C@@H]1OCc1ccccc1` [Compound 26], 0.05 to 0.1 µM. Turning to `COc1cccc(NC(=O)c2cc(C(=O)N[C@H]3CCCC[C@@H]3OCc3ccccc3)n(CC(=O)N[C@H]3CCCC[C@@H]3OCc3ccccc3)n2)c1` [Compound 16], the IC50 was < 0.05 µM.

Regarding `CCOC(=O)c1cc(C(=O)Nc2cc(C)ccc2OCn2nc(C)cc2C)n(CC(=O)N[C@H]2CCCC[C@@H]2OCc2ccccc2)n1` [Compound 202], the IC50 is > 1 µM.

As for `Nc1cc(C(=O)N[C@H]2CCCC[C@@H]2OCc2ccccc2)n(CC(=O)NC2CCCC[C@@H]2OCc2ccccc2)n1` (stereo partly drawn) [Compound 205], the IC50 is > 1 µM.

As to `O=C(Cn1nc(-c2cccs2)cc1C(=O)N[C@H]1CCCC[C@@H]1OCc1ccccc1)N[C@H]1CCCC[C@@H]1OCc1ccccc1` [Compound 170], the IC50 is > 1 µM. For `Cc1ccc(OCC2CCC2)c(NC(=O)c2cc(C(=O)O)nn2CC(=O)N[C@H]2CCCC[C@@H]2OCc2ccccc2)c1` [Compound 9], the IC50 was < 0.05 µM. As to `Cc1ccc(OCC2CCCCC2)c(NC(=O)c2cc(C(=O)O)nn2CC(=O)N[C@H]2CCCC[C@@H]2OCc2ccccc2)c1` [Compound 5], the IC50 is < 0.05 µM. Same read-out and setting: then `CC(C)(C)OC(=O)Nc1cc(C(=O)N[C@H]2CCCC[C@@H]2OCc2ccccc2)n(CC(=O)N[C@H]2CCCC[C@@H]2OCc2ccccc2)n1` [Compound 172], with > 1 µM; and `O=C(Cn1nc(C(=O)NCC(c2ccccc2)c2ccccc2)cc1C(=O)N[C@H]1CCCC[C@@H]1OCc1ccccc1)NC1CCCC[C@@H]1OCc1ccccc1` (stereo partly drawn) [Compound 204], with > 1 µM; and `CCOC(=O)c1cc(C(=O)N[C@H]2CCCC[C@@H]2NCc2ccccc2)n(CC(=O)N[C@H]2CCCC[C@@H]2OCc2ccccc2)n1` [Compound 174], with > 1 µM. Same read-out and setting: then `O=C(Cn1nc(C(=O)O)cc1C(=O)N[C@H]1CCCC[C@@H]1OCc1ccccc1)Nc1ccc2c(c1)OCO2` [Compound 185], with > 1 µM. Same read-out and setting: for `O=C(Cn1nc(NS(=O)(=O)c2ccccc2F)cc1C(=O)N[C@H]1CCCC[C@@H]1OCc1ccccc1)N[C@H]1CCCC[C@@H]1OCc1ccccc1` [Compound 37] the value was 0.05 to 0.1 µM; for `O=C(O)c1cc(C(=O)N[C@H]2CCCC[C@@H]2OCc2ccccc2)n(CC(=O)N2CCC[C@@H]2COCc2ccccc2)n1` [Compound 198], > 1 µM.

With `O=C(Cn1nc(NS(=O)(=O)c2ccc(Cl)s2)cc1C(=O)N[C@H]1CCCC[C@@H]1OCc1ccccc1)N[C@H]1CCCC[C@@H]1OCc1ccccc1` [Compound 38], the IC50 was in the range of 0.05 to 0.1 µM. `C[C@H](NC(=O)c1cc(C(=O)N[C@H]2CCCC[C@@H]2OCc2ccccc2)n(CC(=O)N[C@H]2CCCC[C@@H]2OCc2ccccc2)n1)c1cccc2ccccc12` [Compound 27] yielded an IC50 of 0.05 to 0.1 µM.

Still in this experiment, the particulars now being: Δ21 Activity (IC50 μM), 50 nM NS5B (Δ21), numeric values.
`Cc1ccc(OCC2CCCCC2)c(NC(=O)c2cc(C(=O)O)nn2CC(=O)N[C@H]2CCCC[C@@H]2OCc2ccccc2)c1` [drawing 244] yielded an IC50 of 0.033 µM.

Regarding `N#CNC(=O)c1cc(C(=O)N[C@H]2CCCC[C@@H]2OCc2ccccc2)n(CC(=O)N[C@H]2CCCC[C@@H]2OCc2ccccc2)n1` [drawing 254], the IC50 stood at 0.042 µM. Still for that read-out and setting: for `O=C(Cn1nc(C(=O)O)cc1C(=O)Nc1ccc(F)cc1OCC1CCCCC1)N[C@H]1CCCC[C@@H]1OCc1ccccc1` [drawing 249] the value was 0.035 µM.

The molecule `N#CNC(=O)c1cc(C(=O)Nc2ccccc2OCc2ccccc2)n(CC(=O)N[C@H]2CCCC[C@@H]2OCc2ccccc2)n1` [drawing 245] came in with an IC50 of 0.024 µM.

One may read the IC50 as the concentration that gives 50% inhibition.
